According to patent publication US20140094413A1, “HEPATOCYTE GROWTH FACTOR (HGF) MIMICS AS THERAPEUTIC AGENTS” (WASHINGTON STATE UNIVERSITY, priority 2012, published 2014):
“Also recorded” adds a separate entry of the source. Counter-ions that a name gives are not always drawn. Where a SMILES comes first, the peptide text is derived from it. [ ]: non-standard residue; d: D form. dNle = CCCC[C@@H](N)C(=O)O; Ahx = NCCCCCC(=O)O

Tests used:
[1] = biological target: T1, human HGF (Homo sapiens, UniProt P14210); assay: HGF dimerization; type: biochemical; conditions: analogs at 10^−10 M, heparin, 30 minute incubation
T1 construct: purchased R&D Systems (Minneapolis, Minn.)
T1 sequence (P14210 32-728): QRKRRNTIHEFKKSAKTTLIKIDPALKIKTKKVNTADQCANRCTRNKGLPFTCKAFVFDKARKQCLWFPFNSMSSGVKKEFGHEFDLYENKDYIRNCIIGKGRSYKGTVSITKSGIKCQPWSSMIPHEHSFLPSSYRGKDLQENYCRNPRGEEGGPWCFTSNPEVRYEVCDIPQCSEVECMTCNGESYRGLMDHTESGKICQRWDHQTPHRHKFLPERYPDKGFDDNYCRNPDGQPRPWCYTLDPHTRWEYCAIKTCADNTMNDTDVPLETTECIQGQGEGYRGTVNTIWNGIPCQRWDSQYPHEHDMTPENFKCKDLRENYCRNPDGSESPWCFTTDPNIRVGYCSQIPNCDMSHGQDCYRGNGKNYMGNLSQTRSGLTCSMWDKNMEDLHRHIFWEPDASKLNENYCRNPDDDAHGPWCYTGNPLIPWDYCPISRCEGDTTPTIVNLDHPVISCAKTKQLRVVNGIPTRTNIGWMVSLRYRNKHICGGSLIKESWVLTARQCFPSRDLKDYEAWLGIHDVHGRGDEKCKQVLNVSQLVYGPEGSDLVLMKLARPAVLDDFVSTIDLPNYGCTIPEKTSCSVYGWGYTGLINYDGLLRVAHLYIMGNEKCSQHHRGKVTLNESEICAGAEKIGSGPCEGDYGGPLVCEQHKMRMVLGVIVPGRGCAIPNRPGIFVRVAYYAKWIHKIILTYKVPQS
Protocol: HGF dimerization was assessed using PAGE followed by silver staining (Kawas et al., 2011). Human HGF at a concentration of 0.08 ng/μl with or without 6-AH analogs was incubated with heparin at a final concentration of 5 μg/ml. Loading buffer was then added to each sample and the mixture separated by native PAGE using gradient Criterion XT precast gels (4-12% Bis-Tris; Biorad Laboratories, Hercules, Calif.). Next the gel was silver stained for the detection of the HGF monomers and dimers. Bands were quantitated from digital images using a UVP phosphoimager (Upland, Calif.).

[2] = tested on: MDCK cells; assay: Inhibition of HGF-dependent scattering in MDCK cells; type: cell-based, canine; conditions: HGF 20 ng/ml, 48 h
Protocol: MDCK cells were grown to 100% confluency on the coverslips in six-well plates and washed twice with PBS. The confluent coverslips were then aseptically transferred to new six well plates containing 900 μl serum free DMEM. Norleual, Hinge peptide, and/or HGF (20 ng/ml) were added to appropriate wells. Control wells received PBS vehicle. Plates were incubated at 37° C. with 5% CO2 for 48 h. Media was removed and cells were fixed with methanol. Cells were stained with Diff-Quik Wright-Giemsa (Dade-Behring, Newark, Del.) and digital images were taken. Coverslips were removed with forceps and more digital images were captured. Pixel quantification of images was achieved using Image J and statistics were performed using Prism 5 and InStat v.3.05 (GraphPad; San Diego, Calif.).

[3] = tested on: Met; assay: Inhibition of HGF-dependent Met phosphorylation in HEK293 cells; type: cell-based, human; conditions: 10 min with HGF+/− analog
Protocol: HEK293 cells were seeded in 6 well tissue culture plates and grown to 95% confluency in DMEM containing 10% FBS. The cells were serum deprived for 24 h prior to the treatment to reduce the basal levels of phospho-Met. Following serum starvation, cocktails comprised of vehicle and HGF with/without 6-AH analogs were prepared and pre-incubated for 30 min at room temperature. The cocktail was then added to the cells for 10 min to stimulate the Met receptor and downstream proteins. Cells were harvested using RIPA lysis buffer (Millipore; Billerica, Mass.) fortified with phosphatase inhibitor cocktails 1 and 2 (Sigma-Aldrich; St. Louis, Mo.). The lysate was clarified by centrifugation at 15,000 nx g for 15 min, protein concentrations were determined using the BCA total protein assay (Pierce), and then appropriate volumes of the lysates were diluted with 2× reducing Laemmli buffer and heated for ten min at 95° C. Samples containing identical amounts of protein were resolved using SDS-PAGE (Criterion, BioRad Laboratories), transferred to nitrocellulose, and blocked in Tris-buffered saline (TBS) containing 5% milk for 1 h at room temperature. The phospho-Met antibody were added to the blocking buffer at a final concentration of 1:1000 and incubated at 4° C. overnight with gentle agitation. The membranes were then washed several times with water and TBS ([…], 0.05% Tween-20), a 1:5000 dilution of horseradish-peroxidase conjugated goat anti-rabbit antiserum was added, and the membranes further incubated for 1 h at room temperature. Proteins were visualized using the Supersignal West Pico Chemiluminescent Substrate system (Pierce, Fenton, Mo.) and molecular weights determined by comparison to protein ladders (BenchMark, Invitrogen, and Kaleidoscope, BioRad). Film images were digitized and analyzed using a UVP phosphoimager.

[4] = biological target: T1, human HGF; assay: HGF binding, competition with 3H-Hinge; conditions: 1.25 ng HGF, 40 min at 37° C.; N=9
Protocol: The binding of 6-AH analogs to HGF was assessed by competition using a soluble binding assay. 250 μl of PBS containing human HGF (1.25 ng) were incubated with ^3H-Hinge, the central dimerization domain of HGF, in the presence of varying concentrations of 6-AH analogs between 10^−13 M to 10^−7M (half-log dilutions) for 40 min at 37° C. The incubates were then spun through Bio-Gel P6 spin columns (400 μl packed volume) for 1 min to separate free and bound ^3H-Hinge and the eluent was collected. Five milliliters of scintillation fluid was added to the eluent, which contained the HGF bound ^3H-Hinge, and was then counted using scintillation counter. Total disintegrations per minute of bound ^3H-Hinge were calculated based on machine counting efficiency. The Ki values for the binding of the peptides were determined using the Prism 5. Competition binding curves were performed in triplicate.

[5] = tested on: MDCK cells; assay: HGF-dependent MDCK cell proliferation (MTT); type: cell-based, canine; conditions: analogs at 10^−10M, HGF 10 ng/ml, 4 days
Protocol: 5000 MDCK cells were seeded into the wells of a 96 well plates in 10% FBS DMEM. To induce cellular quiescence, the cells were serum deprived for 24 h prior to initiating the treatments. Following serum starvation, 10 ng/ml HGF alone and with various concentrations of 6-AH analogs or PBS vehicle were added to the media. The cells were allowed to grow under these conditions for 4 days with a daily addition of 6-AH analogs. On the fourth day, 1 mg/ml of […] (MTT, Sigma-Aldrich) prepared in PBS was added to the cells and incubated for 4 h. Dimethyl sulfoxide diluted in a 0.01M glycine buffer was added to solubilize the cell membranes and the absorbance of reduced MTT in the buffer was quantitated at 590 nm using a plate reader (Biotek Synergy 2, Winooski, Vt.). HGF-dependent proliferation was determined by subtracting the basal proliferation (in the absence of HGF) from total proliferation rates in groups containing HGF.

[6] = tested on: rats; assay: Morris water maze with i.c.v. Dihexa and HGF antagonist Hinge; type: in vivo, rat
[7] = tested on: scopolamine treated rats; assay: Morris water maze, scopolamine amnesia model; conditions: Hinge 20 ng ICV; Dihexa 2 mg/kg orally; scopolamine 70 μg ICV
Protocol: Male Sprague-Dawley rats (Taconic derived) weighing 390-450 g were maintained with free access to water and food (Harland Tekland F6 rodent diet, Madison, Wis.) except the night prior to surgery when food was removed. Each animal was anesthetized with Ketamine hydrochloride plus Xylazine (100 and 2 mg/kg im. respectively; Phoenix Scientific; St. Joseph, Mo., and Moby; Shawnee, Kans.). […] The guide cannula measured 2.5 cm in overall length and was prepared with a heat bulge placed 2.5 mm from its beveled tip, thus acting as a stop to control the depth of penetration. Once in position, the cannula was secured to the skull with two stainless-steel screws and dental cement. Post-operatively the animals were housed individually in an American Accreditation for Laboratory Animal Care-approved vivarium maintained at 22±1° C. on a 12-h alternating light/dark cycle initiated at 06:00 h. All animals were hand gentled for 5 min per day during the 5-6 days of post-surgical recovery. Histological verification of cannula placement was accomplished by the injection of 5 μl fast-green dye via the guide cannula following the completion of behavioral testing.
A black circular platform (diameter: 12 cm; height: 24 cm) was placed 30 cm from the wall and submerged 2 cm below the water surface. The maze was operationally sectioned into four equal quadrants designated NW, NE, SW, and SE. For each rat the location of the platform was randomly assigned to one of the quadrants and remained fixed throughout the duration of training. Entry points were at the quadrant corners (i.e. N, S, E, and W) and were pseudo-randomly assigned such that each trial began at a different entry point than the preceding trial. Three of the four testing room walls were covered with extra-maze spatial cues consisting of different shapes (circles, squares, triangles) and colors. The swimming path of the animals was recorded using a computerized video tracking system (Chromotrack; San Diego Instruments, CA). […] Swim speed was determined from these values.
Each member of the treatment groups in the scopolamine studies received an icy injection of scopolamine hydrobromide (70 nmol in 2 μl aCSF over a duration of 20 s) 30 min prior to testing followed by Dihexa 10 min prior to testing. Control groups received scopolamine or aCSF 20 min prior to testing followed by aCSF 10 min prior testing. […] The rats in the aged rat study on received Dihexa of aCSF (control group). Briefly, acquisition trials were conducted on 8 consecutive days with 5 trials/day. On the first day of training the animal was placed on the platform for 30 s prior to the first trial. Trials commenced with the placement of the rat facing the wall of the maze at one of the assigned entry points. […] Once the animal located the platform it was permitted a 30 s rest period on the platform. […] The next trial commenced immediately following the rest period.
Following day 8 of acquisition training, one additional trial was conducted during which the platform was removed (probe trial). […] Total time spent within the target quadrant where the platform had been located during acquisition and the number of crossings of that quadrant was recorded.

[8] = tested on: hippocampal neurons; assay: Whole-cell recordings of mEPSCs in dissociated hippocampal neurons; type: cell-based, rat; design: unit not given beside the values; conditions: 10^−12 M (each), 5 days
[9] = tested on: hippocampal neurons; assay: Spinogenesis in mRFP-β-actin transfected dissociated hippocampal neurons; type: cell-based, rat
Protocol: (§1) Hippocampal neurons (2×10^5 cells per square cm) were cultured from P1 Sprague Dawley rats on plates coated with poly-L-lysine from Sigma (St. Louis, Mo.; molecular weight 300,000). Hippocampal neurons were maintained in Neurobasal A media from Invitrogen (Carlsbad, Calif.) supplemented with B27 from Invitrogen, 0.5 mM L-glutamine, and […] cytosine-D-arabinofuranoside from Sigma added at 2 days in vitro. Hippocampal neurons were then cultured a further 3-7 days, at which time they were either transfected or treated with various pharmacological reagents as described in (Wayman, Davare et al. 2008).
(§2) Neurons were transfected with mRFP-β-actin on day in vitro 6 (DIV6) using LipofectAMINE™ 2000 (Invitrogen) according to the manufacturer's protocol. This protocol yielded the desired 3-5% transfection efficiency thus enabling the visualization of individual neurons. Higher efficiencies obscured the dendritic arbor of individual neurons. Expression of fluorescently tagged actin allowed clear visualization of dendritic spines, as dendritic spines are enriched in actin. […] On DIV 12 the neurons were fixed (4% paraformaldehyde, 3% sucrose, 60 mM PIPES, 25 mM HEPES, 5 mM EGTA, 1 mM MgCl2, pH 7.4) for 20 min at room temperature and mounted. Slides were dried for at least 20 hours at 4° C. and fluorescent images were obtained with Slidebook 4.2 Digital Microscopy Software driving an Olympus IX81 inverted confocal microscope with a 60× oil immersion lens, NA 1.4 and resolution 0.280 μm Dendritic spine density was measured on primary and secondary dendrites at a distance of at least 150 μm from the soma. Five 50 μm long segments of dendrite from at least 10 neurons per data point were analyzed for each data point reported. Each experiment was repeated at least three times using independent culture preparations. Dendrite length was determined using the National Institutes of Health's Image J 1.41o program (NIH, Bethesda, Md.) and the neurite tracing program Neuron J (Meijering, Jacob et al. 2004) Spines were manually counted.
as §1, with “centimeter)” for “cm)”, “P1-2” for “P1”, “the text or figure legends.” for “(Wayman, Davare et al. 2008).”
as §2, with “DIV12” for “DIV 12”, “Dendrite length was determined using the National Institutes of Health's Image J 1.41o program (NIH, Bethesda, Md.) and the neurite tracing program Neuron J (Meijering, Jacob et al. 2004) Spines were manually counted.” left out

[10] = aCSF followed by Hinge, no scopolamine

With `CCCC[C@@H](N)C(=O)N[C@@H](CCSC)C(=O)N[C@H](C(=O)NCCCCCC(N)=O)[C@@H](C)CC` [D-Nle-Met-Ile-NH—(CH2)5—CONH2] (H-[dNle]MI[Ahx]-NH2) the “Inhibition of HGF dimerization” value [1] was “unable to block dimerization at the concentration tested”, the “Inhibition of HGF-dependent MDCK cell scattering” value [2] was “not different” and the “Inhibition of HGF-dependent Met phosphorylation” value [3] was “no ability to effect on Met activation”. For the same molecule, the “Inhibition of HGF-dependent Met phosphorylation” value ([3]; listed as Met) was “not different than the HGF group” and the Ki [4] was 138 nM.

For `CCCC[C@@H](N)C(=O)N[C@@H](Cc1c[nH]c2ccccc12)C(=O)N[C@H](C(=O)NCCCCCC(N)=O)[C@@H](C)CC` [D-Nle-Trp-Ile-NH—(CH2)5—CONH2] (H-[dNle]WI[Ahx]-NH2), the “Inhibition of HGF dimerization” value [1] was “intermediate inhibition of dimerization”, the “Inhibition of HGF dimerization” value ([1]; listed as Trp) was “statistically different than the HGF treated group” and the “Inhibition of HGF-dependent MDCK cell proliferation” value [5] was “showed inhibitory activity, albeit less than that observed with the most potent analogs”. The “Inhibition of HGF-dependent MDCK cell scattering” value [2] was “different from the HGF alone group but not different from the control group”, the “Inhibition of HGF-dependent Met phosphorylation” value [3] was “intermediate inhibitory activity” and the Ki [4] was 3.37 nM.

For `CN1[C@@H]2C[C@@H](OC(=O)[C@H](CO)c3ccccc3)C[C@H]1[C@@H]1O[C@@H]12` [scopolamine, scopolamine hydrobromide], the “Mean latency to find the pedestal, day one” value ([6]; scopolamine treated rats) was 114.7 s, the “Mean latency to find the pedestal, final day (day 8)” value ([6]; scopolamine treated rats) was 84.8 s and the “Mean latency to find the pedestal, fourth day” value ([6]; scopolamine treated rats) was 102.4 s.

In the case of “DYIRNC (Synthetic hinge peptide) [novel HGF antagonist; peptide representing the dimerization domain (hinge region) of HGF; KDYIRN in b79]”, the “Blockade of Dihexa's reversal of scopolamine cognitive dysfunction” value [7] is reported as “blocked”, the “Effect on learning in the water maze” value ([6]; Hinge alone) is reported as “no effect on learning” and the “Mean latency to find the pedestal, day one” value [6, 10] is reported as 111.1 s. For the same molecule, the “Mean latency to find the pedestal, final day (day 8)” value [6, 10] was 46.1 s, the “Mean latency to find the pedestal, fourth day” value [6, 10] was 78.3 s and the mEPSC mean frequency [8] was 4.51±0.47. For the same molecule, the “Inhibition of Dihexa-induced spinogenesis” value ([9]; Hinge 10^−12 M, Dihexa 10^−12 M) was “did effectively inhibit spine formation; also recorded: inhibits Dihexa-induced spinogenesis; also recorded: inhibits Dihexa induced spinogenesis”, the “Inhibition of HGF-induced spinogenesis” value ([9]; Hinge 10^−12 M, HGF 10 ng/ml) was “did effectively inhibit spine formation; also recorded: inhibits HGF-induced spinogenesis; also recorded: inhibits HGF induced spinogenesis” and the “Inhibition of Nle1-AngIV-induced spinogenesis” value ([9]; Hinge 10^−12 M, Nle1-AngIV 10^−12 M) was “did effectively inhibit spine formation; also recorded: inhibits Nle1-AngIV-induced spinogenesis; also recorded: inhibits Nle^1-AngIV induced spinogenesis”. For the same molecule, the “Effect on basal spinogenesis” value ([9]; Hinge alone, wide range of doses) was “no effect on spinogenesis over a wide range of doses; also recorded: does not affect spinogenesis; also recorded: had no effect on basal spine levels”.
